Experimental data as given in patent US4959353A, “Promotion of corneal stroma wound healing with human epidermal growth factor prepared from recombinant DNA” (University of Louisville Foundation, priority 1987, dated 1990).

Experiments:
[1] = system: capillary growth in rabbit cornea; test: Rabbit cornea angiogenesis assay with hEGF EVA pellets; format: in vivo, rabbits; set-up: key to Angiogenic Response: 4+: profuse capillary growth; 3+: extensive capillary growth; 2+: moderate capillary growth; 1+: very little capillary growth; 0: no capillary growth
Description: hEGF was dilated in sterile PBS to concentrations of 500, 100, 20, 4 and 0.8 μg/ml and lyophilized. Ethylene-vinyl acetate (EVA) copolymer beads were mixed with methylene chloride to produce a 10% w/v casting solution. Approximately 0.1 ml of casting solution was added to the lyophilized hEGF and mixed. […]
The pellets were implanted into intrasomal corneal pockets located 1.5 mm from the limbus in the eyes of pigmented adult rabbits. […]

interscapular incision [2] = test: Tensile strength of incisions treated with repeated doses of EGF-saline; format: in vivo, rats
Description: Interscapular incisions were created as above on the backs of 22 rats and a perforated catheter was placed in the base of the incision and brought out through a separate stab incision at the base of the neck. Incisions of half the rats were treated three times a day for five days by rapidly injecting 200 μl of PBS containing 50 μg of hEGF, while the control rats received injections of PBS. Seven and 14 days after surgery, rats were sacrificed by carbon dioxide asphixiation, incisions and surrounding tissue were removed as above. Three strips were taken from tensile strength measurement from each incision.
An interscapular incision was made on the back of each rat and a perforated catheter was placed in the base of the incision and brought out through a separate stab wound and the incision was sutured. Incisions were treated three times a day for five days by injecting 200 μl of saline alone or containing 50 μg EGF. After seven and fourteen days, rats were sacrificed and triplicate tensile strength measurements were determined for each rat. Values are mean and standard deviation and n is the number of tensile strength measurements.

interscapular incision [3] = test: Tensile strength of incisions treated with a single dose of EGF-saline; format: in vivo, rats; settings: after 10 days; single dose in saline
Description: Adult male Sprague Dawley rats weighing 230-250 g were anesthetized and a single interscapular incision 5 cm long penetrating the panniculus carnosus was created in the dorsal midline. Equal amounts of hEGF (10 μg) formulated in one of the four formulations were placed in the base of individual incision tracts, and then sutured. At daily intervals, rats were sacrificed by carbon dioxide inhalation and incisions with 3 mm of surrounding nonwounded skin were excised to the underlying muscle. Total amounts of hEGF present in incision areas were calculated by measuring residual ^125 I-hEGF present in samples using a Beckman 4000 gamma scintillation counter, and were expressed as percentages of original hEGF applied to incisions. At each time point, the average amount of hEGF retained in the incision for each formulation was calculated from the values from three rats. From each incision, three test strips approximately 5 mm wide were cut perpendicular to the original incision, one from the middle and two from each end. Measurements of incision strength were conducted using a Unite-O-Matic FM-20 tensiometer instrument. For each formulation, the mean tensile strength was calculated from the mean value of all incision measurements in the group. […]

open wounds = settings: topical application; mice; cited from earlier work
blister wounds = settings: mEGF in saline solution once daily until healed; human subjects; cited from earlier work

hEGF: human epidermal growth factor polypeptide expressed from plasmid pYαEGF-23 in yeast strain AB103 and purified
Angiogenic Response ([1]; 0.04 mg/pellet (so in the source), EVA pellet): 1+
Angiogenic Response ([1]; 0.18 mg/pellet (so in the source), EVA pellet): 1+
Angiogenic Response ([1]; 1.1 mg/pellet (so in the source), EVA pellet): 2+
Angiogenic Response ([1]; 6.2 mg/pellet (so in the source), EVA pellet): 3+
Angiogenic Response ([1]; 25 mg/pellet (so in the source), EVA pellet in rabbit corneal pocket): 4+
angiogenesis in rabbit cornea assay ([1]; sustained release from EVA pellets): induced angiogenesis
average increase in strength over saline treated incisions (interscapular incision [2]; 7 days after surgery): 35%
microscopic appearance of incision tract (interscapular incision [2]; 7 days after surgery): very narrow with closely opposed edges
tensile strength vs saline-treated incisions (interscapular incision [2]; fourteen days after surgery): not different
tensile strength vs PBS-treated or simply sutured incisions (interscapular incision [3]): not significantly stronger

mEGF: epidermal growth factor obtained from mouse salivary glands (NSYPGCPSSYDGYCLNGGVCMHIESLDSYTCNCVIGYSGDRCQTRDLRWWELR; not fully specified; Epidermal growth factor; UniProt P01132 977-1029, looked up)
healing of open wounds (open wounds): promote healing in various degrees
acceleration in the growth of the epidermal layer (blister wounds): No acceleration
